Converted amounts (≈) assume the structure as drawn. Like-named read-outs stand apart in the source and are kept apart here.
How the values were obtained:
[1] = tested on: P. aeruginosa PAM1723 (MexAB-OprM overexpressed); format: cell-based, Pseudomonas aeruginosa; conditions: for MIC, No Pentamidine / MIC, Pentamidine (40 μg/ml): PAM1723 (MexAB-OprM overexpressed); for MIC, Pentamidine (40 μg/ml): in the presence of pentamidine 40 μg/ml
[2] = tested on: P. aeruginosa PAM1154 (MexAB-OprM deleted); format: cell-based, Pseudomonas aeruginosa
[3] = tested on: P. aeruginosa PAM1020 (wt, basal level of MexAB-OprM); assay: Levofloxacin potentiation checkerboard assay (broth microdilution); format: cell-based, Pseudomonas aeruginosa; conditions: PAM1020; for MIC: Pseudomonas aeruginosa, inhibitor alone, read-out: MIC* (MIC for the efflux pump inhibitor)
Experimental: (§1) Stock solutions were further diluted, according to the needs of a particular assay, in Mueller Hinton Broth (MHB). Stock solution was stored at −80° C.
(§2) The checkerboard assay was performed in microtiter plates. […] The result of these manipulations is that each well of the microtiter plate contains a unique combination of concentrations of the two agents. The assay was performed in MHB with a final bacterial inoculum of 5×10^5 CFU/ml (from an early-log phase culture). Microtiter plates were incubated during 20 h at 35° C. and were read using a microtiterplate reader (Molecular Devices) at 650 nm as well as visual observation using a microtiter plate reading mirror.
(§3) The test organisms used was PAM1020, which is a wild type strain of P. aeruginosa expressing the basal level of MexAB-OprM, as well as PAM1723, PAM1738, and PAM1753, overexpressing the MexAB-OprM, MexCD-OprJ, and MexEF-OprN pump, respectively.

[4] = tested on: P. aeruginosa PAM1753 (nfxC, overexpressing MexEF-OprN); assay: as above; format: cell-based, Pseudomonas aeruginosa; conditions: for Levofloxacin MIC in the presence of inhibitor: PAM1753; for MIC: Pseudomonas aeruginosa, read-out: MIC* (MIC for the efflux pump inhibitor)
Experimental: as §1, §2, §3

[5] = tested on: P. aeruginosa PAM1723 (nalB, overexpressing MexAB-OprM); assay: microbe, parasite or virus in culture; format: cell-based, Pseudomonas aeruginosa; conditions: for Levofloxacin MIC in the presence of inhibitor: PAM1723; for MIC: Pseudomonas aeruginosa, read-out: MIC* (MIC for the efflux pump inhibitor), PAM1723, inhibitor alone
Experimental: as §1, §2, §3
Efflux pump inhibitory activity of several commercially available diamidine analogs was evaluated using the checkerboard assay of Example 1 against the strain of P. aeruginosa overexpressing the MexAB-OprM efflux pump.

[6] = tested on: P. aeruginosa PAM1738 (nfxB, overexpressing MexCD-OprJ); assay: microbe, parasite or virus in culture; format: cell-based, Pseudomonas aeruginosa; conditions: for Levofloxacin MIC in the presence of inhibitor: PAM1738; for MIC: Pseudomonas aeruginosa, read-out: MIC* (MIC for the efflux pump inhibitor)
Experimental: as §1, §2, §3

[7] = tested on: P. aeruginosa PAM1626 (lacks all the three efflux pumps); assay: microbe, parasite or virus in culture; format: cell-based, Pseudomonas aeruginosa; conditions: for Levofloxacin MIC in the presence of inhibitor: PAM1626; for MIC: Pseudomonas aeruginosa, read-out: MIC* (MIC for the efflux pump inhibitor)
[8] = biological target: MexAB-OprM-mediated efflux of Leu-Nap, PAM1723 cells (Pseudomonas aeruginosa, UniProt P52002); assay: Leu-Nap accumulation assay; format: cell-based; conditions: Leu-Nap 100 μg/ml
[9] = intravenous infusion; cited from earlier work

MexAB-OprM-mediated efflux of Leu-Nap, PAM1723 cells, sequence (Q51487 18-485): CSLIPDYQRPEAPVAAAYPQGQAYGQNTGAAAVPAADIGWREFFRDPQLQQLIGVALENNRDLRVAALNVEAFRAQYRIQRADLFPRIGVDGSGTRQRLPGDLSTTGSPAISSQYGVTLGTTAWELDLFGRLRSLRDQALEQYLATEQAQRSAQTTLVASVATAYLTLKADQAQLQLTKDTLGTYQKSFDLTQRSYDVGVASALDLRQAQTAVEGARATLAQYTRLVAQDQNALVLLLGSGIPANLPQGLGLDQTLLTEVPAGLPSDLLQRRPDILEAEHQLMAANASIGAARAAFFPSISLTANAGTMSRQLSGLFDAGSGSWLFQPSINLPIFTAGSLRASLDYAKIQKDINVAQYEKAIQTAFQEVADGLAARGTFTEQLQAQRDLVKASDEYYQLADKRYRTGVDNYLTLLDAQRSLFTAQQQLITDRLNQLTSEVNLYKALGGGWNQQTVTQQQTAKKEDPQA
MexAB-OprM-mediated efflux of Leu-Nap, PAM1723 cells, sequence (P52002 whole entry, the tested form may be a part): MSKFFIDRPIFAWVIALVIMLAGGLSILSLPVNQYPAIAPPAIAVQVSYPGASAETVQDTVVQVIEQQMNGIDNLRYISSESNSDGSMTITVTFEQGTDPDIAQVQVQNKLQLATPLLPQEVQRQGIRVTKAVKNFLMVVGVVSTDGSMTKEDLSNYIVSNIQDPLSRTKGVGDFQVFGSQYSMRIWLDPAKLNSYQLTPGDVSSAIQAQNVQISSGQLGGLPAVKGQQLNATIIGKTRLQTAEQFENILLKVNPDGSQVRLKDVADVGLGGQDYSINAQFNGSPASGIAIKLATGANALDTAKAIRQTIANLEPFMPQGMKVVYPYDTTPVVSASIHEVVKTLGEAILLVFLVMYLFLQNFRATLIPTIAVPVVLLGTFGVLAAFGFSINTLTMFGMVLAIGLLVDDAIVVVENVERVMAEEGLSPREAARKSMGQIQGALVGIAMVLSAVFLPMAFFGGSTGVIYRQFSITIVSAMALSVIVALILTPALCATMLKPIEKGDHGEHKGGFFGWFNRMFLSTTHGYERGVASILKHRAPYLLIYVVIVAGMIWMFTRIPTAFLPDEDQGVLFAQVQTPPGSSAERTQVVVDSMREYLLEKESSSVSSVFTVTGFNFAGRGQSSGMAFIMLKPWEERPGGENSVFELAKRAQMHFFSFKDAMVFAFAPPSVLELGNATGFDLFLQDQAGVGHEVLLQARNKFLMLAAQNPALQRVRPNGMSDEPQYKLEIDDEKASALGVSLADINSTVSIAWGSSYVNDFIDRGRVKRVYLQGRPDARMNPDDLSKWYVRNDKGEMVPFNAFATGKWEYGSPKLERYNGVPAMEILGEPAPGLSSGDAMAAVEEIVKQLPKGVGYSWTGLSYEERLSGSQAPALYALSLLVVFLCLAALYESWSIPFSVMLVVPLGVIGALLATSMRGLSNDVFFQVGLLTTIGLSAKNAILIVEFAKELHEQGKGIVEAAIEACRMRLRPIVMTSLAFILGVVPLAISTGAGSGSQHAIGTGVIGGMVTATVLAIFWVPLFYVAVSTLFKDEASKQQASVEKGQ
MexAB-OprM-mediated efflux of Leu-Nap, PAM1723 cells, sequence (P52477 24-383, further chain): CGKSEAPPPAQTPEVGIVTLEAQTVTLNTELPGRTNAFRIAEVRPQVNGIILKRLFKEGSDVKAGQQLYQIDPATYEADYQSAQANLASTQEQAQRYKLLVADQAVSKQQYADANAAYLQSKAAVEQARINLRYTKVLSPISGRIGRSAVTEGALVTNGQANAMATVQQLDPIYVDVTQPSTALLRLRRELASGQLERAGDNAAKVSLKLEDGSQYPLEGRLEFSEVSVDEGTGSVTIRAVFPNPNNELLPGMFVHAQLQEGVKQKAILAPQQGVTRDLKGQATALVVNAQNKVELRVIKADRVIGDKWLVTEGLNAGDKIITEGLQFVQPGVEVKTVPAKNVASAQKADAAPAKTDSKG

Row | Structure (SMILES) | MIC, No Pentamidine [1] [µg/mL] | MIC, Pentamidine (40 μg/ml) [1] | decrease of the MIC by pentamidine ([1]; PAM1723, pentamidine 40 μg/ml) [fold] | MIC, No Pentamidine [2] [µg/mL] | Levofloxacin MIC in the presence of inhibitor ([3]; inhibitor 1.25 μg/ml) [µg/mL] | Levofloxacin MIC in the presence of inhibitor ([3]; inhibitor 2.5 μg/ml) [µg/mL] | Levofloxacin MIC in the presence of inhibitor ([3]; inhibitor 5 μg/ml) [µg/mL] | Levofloxacin MIC in the presence of inhibitor ([3]; inhibitor 10 μg/ml) [µg/mL] | MIC [3] [µg/mL] | Levofloxacin MIC in the presence of inhibitor ([4]; inhibitor 1.25 μg/ml) [µg/mL] | Levofloxacin MIC in the presence of inhibitor ([4]; inhibitor 2.5 μg/ml) [µg/mL] | MIC [4] [µg/mL] | Levofloxacin MIC in the presence of inhibitor ([5]; inhibitor 1.25 μg/ml) [µg/mL] | Levofloxacin MIC in the presence of inhibitor ([5]; inhibitor 2.5 μg/ml) [µg/mL] | Levofloxacin MIC in the presence of inhibitor ([5]; inhibitor 5 μg/ml) [µg/mL] | Levofloxacin MIC in the presence of inhibitor ([5]; inhibitor 10 μg/ml) [µg/mL] | Levofloxacin MIC in the presence of inhibitor ([5]; inhibitor 20 μg/ml) [µg/mL] | Levofloxacin MIC in the presence of inhibitor ([5]; inhibitor 40 μg/ml) [µg/mL] | MIC [5] [µg/mL] | Levofloxacin MIC in the presence of inhibitor ([6]; inhibitor 1.25 μg/ml) [µg/mL] | other results
1 | CC[C@H]1OC(=O)[C@H](C)[C@@H](O[C@H]2C[C@@](C)(OC)[C@@H](O)[C@H](C)O2)[C@H](C)[C@@H](O[C@@H]2O[C@H](C)C[C@H](N(C)C)[C@H]2O)[C@](C)(O)C[C@@H](C)CN(C)[C@H](C)[C@@H](O)[C@]1(C)O [Azithro, azithromycin] | 64 (≈ 85.4 µM) | 1 | 64 | 0.5 (≈ 0.668 µM) |  |  |  |  |  |  |  |  |  |  |  |  |  |  |  |  | 
2 | O=C(N[C@H](CO)[C@H](O)c1ccc([N+](=O)[O-])cc1)C(Cl)Cl [Cm, chloramphenicol] | 128 (≈ 396 µM) | 8 | 16 | 1 (≈ 3.09 µM) |  |  |  |  |  |  |  |  |  |  |  |  |  |  |  |  | 
3 | N=C(N)c1ccc(OCCCOc2ccc(C(=N)N)cc2Br)c(Br)c1 [Dibromopropamidine, dibromopropamidine] |  |  |  |  | 0.25 | 0.25 | 0.125 | 0.06 | 80 | 2 | 1 | 20 | 2 | 1 | 0.5 | 0.125 | 0.06 | 0.06 | 80 | 0.5 | Levofloxacin MIC in the presence of inhibitor ([3]; inhibitor 20 μg/ml): 0.03 µg/mL; Levofloxacin MIC in the presence of inhibitor ([3]; inhibitor 40 μg/ml): 0.03 µg/mL; Levofloxacin MIC in the presence of inhibitor ([4]; inhibitor 5 μg/ml): 0.5 µg/mL; Levofloxacin MIC in the presence of inhibitor ([4]; inhibitor 10 μg/ml): 0.125 µg/mL; Levofloxacin MIC in the presence of inhibitor ([6]; inhibitor 2.5 μg/ml): 0.25 µg/mL; Levofloxacin MIC in the presence of inhibitor ([6]; inhibitor 5 μg/ml): 0.125 µg/mL; Levofloxacin MIC in the presence of inhibitor ([6]; inhibitor 10 μg/ml): 0.06 µg/mL; Levofloxacin MIC in the presence of inhibitor ([6]; inhibitor 20 μg/ml): 0.03 µg/mL; Levofloxacin MIC in the presence of inhibitor ([6]; inhibitor 40 μg/ml): 0.03 µg/mL; MIC [6]: 80 µg/mL; Levofloxacin MIC in the presence of inhibitor ([7]; inhibitor 1.25 μg/ml): 7.5 ng/mL; Levofloxacin MIC in the presence of inhibitor ([7]; inhibitor 2.5 μg/ml): 7 ng/mL; MIC [7]: 5 µg/mL (≈ 10.6 µM); inhibitor concentration at which rate of Leu-Nap uptake in PAM1723 and PAM1626 is the same (complete inhibition of efflux) [8]: 20 µg/mL
4 | CC[C@H]1OC(=O)[C@H](C)[C@@H](O[C@H]2C[C@@](C)(OC)[C@@H](O)[C@H](C)O2)[C@H](C)[C@@H](O[C@@H]2O[C@H](C)C[C@H](N(C)C)[C@H]2O)[C@](C)(O)C[C@@H](C)C(=O)[C@H](C)[C@@H](O)[C@]1(C)O [Erm, erythromycin] |  | 64 | 4 | 8 (≈ 10.9 µM) |  |  |  |  |  |  |  |  |  |  |  |  |  |  |  |  | 
5 | N=C(N)c1ccc(OCCCCCCOc2ccc(C(=N)N)cc2)cc1 [Hexamidine, hexamidine] |  |  |  |  | 0.125 | 0.125 | 0.03 | 0.007 | 20 | 2 | 2 | 20 | 2 | 1 | 1 | 0.125 | 0.015 |  | 40 | 0.5 | Levofloxacin MIC in the presence of inhibitor ([4]; inhibitor 5 μg/ml): 1 µg/mL; Levofloxacin MIC in the presence of inhibitor ([4]; inhibitor 10 μg/ml): 0.25 µg/mL; Levofloxacin MIC in the presence of inhibitor ([6]; inhibitor 2.5 μg/ml): 0.5 µg/mL; Levofloxacin MIC in the presence of inhibitor ([6]; inhibitor 5 μg/ml): 0.25 µg/mL; Levofloxacin MIC in the presence of inhibitor ([6]; inhibitor 10 μg/ml): 0.06 µg/mL; Levofloxacin MIC in the presence of inhibitor ([6]; inhibitor 20 μg/ml): 0.015 µg/mL; Levofloxacin MIC in the presence of inhibitor ([6]; inhibitor 40 μg/ml): 0.007 µg/mL; MIC [6]: 80 µg/mL; Levofloxacin MIC in the presence of inhibitor ([7]; inhibitor 1.25 μg/ml): 7 ng/mL; MIC [7]: 2.5 µg/mL (≈ 7.05 µM); inhibitor concentration at which rate of Leu-Nap uptake in PAM1723 and PAM1626 is the same (complete inhibition of efflux) [8]: 20 µg/mL
6 | N=C(N)c1ccc(/N=N/Nc2ccc(C(=N)N)cc2)cc1 [MP 601206] |  |  |  |  |  |  |  |  |  |  |  |  | 2 | 2 | 1 | 1 | 0.5 | 0.06 | 80 |  | 
7 | Cl.Cl.N=C(N)c1cccc(NC(=O)Nc2cccc(C(=N)N)c2)c1 [MP 601319] |  |  |  |  |  |  |  |  |  |  |  |  | 2 | 2 | 2 | 2 | 1 | 0.25 | > 80 |  | Levofloxacin MIC in the presence of inhibitor ([5]; inhibitor 80 μg/ml): 0.125 µg/mL
8 | N=C(N)c1ccc(OCCCOc2ccc(C(=N)N)cc2)cc1 [Propamidine, propamidine] |  |  |  |  | 0.25 | 0.125 | 0.125 | 0.06 | 40 | 4 | 2 | 5 | 2 | 2 | 1 | 0.5 | 0.25 |  | 40 | 0.5 | Levofloxacin MIC in the presence of inhibitor ([3]; inhibitor 20 μg/ml): 0.03 µg/mL; Levofloxacin MIC in the presence of inhibitor ([6]; inhibitor 2.5 μg/ml): 0.5 µg/mL; Levofloxacin MIC in the presence of inhibitor ([6]; inhibitor 5 μg/ml): 0.25 µg/mL; Levofloxacin MIC in the presence of inhibitor ([6]; inhibitor 10 μg/ml): 0.125 µg/mL; Levofloxacin MIC in the presence of inhibitor ([6]; inhibitor 20 μg/ml): 0.015 µg/mL; MIC [6]: 40 µg/mL; Levofloxacin MIC in the presence of inhibitor ([7]; inhibitor 1.25 μg/ml): 15 ng/mL; Levofloxacin MIC in the presence of inhibitor ([7]; inhibitor 2.5 μg/ml): 7 ng/mL; Levofloxacin MIC in the presence of inhibitor ([7]; inhibitor 5 μg/ml): 7 ng/mL; MIC [7]: 10 µg/mL (≈ 32 µM); inhibitor concentration at which rate of Leu-Nap uptake in PAM1723 and PAM1626 is the same (complete inhibition of efflux) [8]: 160 µg/mL
9 | NC[C@H]1O[C@H](O[C@H]2[C@H](O)[C@@H](O[C@H]3O[C@H](CO)[C@@H](O)[C@H](N)[C@H]3O)[C@H](N)C[C@@H]2N)[C@H](N)C[C@@H]1O [Tb, tobramycin] | 0.06 (≈ 0.128 µM) | 0.03 |  | 0.03 (≈ 0.0642 µM) |  |  |  |  |  |  |  |  |  |  |  |  |  |  |  |  | decrease of the MIC by pentamidine [1]: almost no effect
10 | N=C(N)c1ccc(OCCCCCOc2ccc(C(=N)N)cc2)cc1 [pentamidine isethionate, 4,4′-diamidino-diphenoxypentane di(β-hydroxyethanesulfonate)] |  |  |  |  |  |  |  |  |  |  |  |  |  |  |  |  |  |  |  |  | plasma levels during the first two hours following an intravenous infusion [9]: one-twentieth of peak levels
